Values of other authors as cited in patent publication US20230181603A1, “METHODS OF TREATING CANCER WITH METABOLITE ADJUSTMENTS” (priority 2021, published 2023).

Columns and labels:
[1] = test system: glial precursor cell; conditions: slice cultures
[2] = test system: hyaluronidase

- hyaluronidase inhibitor effective concentration [2]: low-micromolar range
SMILES: CCCCCCCCCCCCCCCC(=O)OC[C@H](O)[C@H]1OC(=O)C(O)=C1O [Ascorbyl palmitate]
- inhibition of glial precursor cell migration [1]: potently inhibits
